# Like-named read-outs stand apart in the source and are kept apart here. Marks after values point to notes of the source that are not given here.
# Legend:
# glutamate = test: Effects on excitatory neurotransmitter glutamate levels in mice brain; type: in vivo; settings: FIG. 4
# From the text: In another experiment, the effects on excitatory neurotransmitter levels by levo- and dextro-ornidazole were compared.
# [1] = system: spontaneous activities of mice; settings: both, mouse, in vivo, iv
# Protocol: Mice weighing 18-22 g, half male and half female, were placed in the laboratory 24 hours before the test to adapt to the environment. The room temperature was controlled at 24±2° C. Animals were fasted for 8 hours before testing, and then placed in a transparent cage. The number of spontaneous activities of mice was counted by an automatic device (model XZ-4 by Drug Research Institute of China Academy of Medical Sciences). Mice were pre-screened by counting their spontaneous activities for five minutes and unqualified mice were excluded. A total of 110 mice were selected and divided into 11 groups with 10 mice in each group.
# Chlorpromazine (3 mg/kg) was used as the positive control. The dose volume was 0.2 mL/10 gram and infusion rate was 0.2 mL/10 seconds.
# Beagle dogs = system: Beagle dogs
# Protocol: In the studies, male and female Beagle dogs were treated at high doses of ornidazole enantiomers for 2 weeks, and then sacrificed for anatomical and pathological examinations. […] All the doses were administered in the levo- and racemate groups.
# [2] = system: Strychnine-induced convulsion; test: Anticonvulsant effects on Strychnine-induced convulsion in mice; type: in vivo; settings: n=10; for Convulsion Latency: Mean ± SD
# Protocol: (§1) Mice are randomized into 4 treatment groups (n=10 with half male and half female): dextro- or levo-ornidazole (dosage 40, 80, 160 mg/kg), vehicle control group (15% propylene glycol in 0.9% sodium chloride, 20 mL/kg) and the positive control group. Animals are treated with known convulsion-inducing agents, followed by the drug or vehicle control given intravenously. The dose volume is 20 mL/kg with an infusion rate of 0.2 mL/10 seconds. The anticonvulsant effects are observed and recorded (see Tables 2-6).
# [3] = system: Remefline-induced convulsion; test: Anticonvulsant effects on Remefline-induced convulsion in mice; type: in vivo
# Protocol: In one experiment, the anticonvulsant effects of levo- and dextro-ornidazole against drug-induced convulsions in mice were compared. In four different animal convulsion models, mice were treated by four different seizure-inducing agents, including Remefline, Strychnine, isoniazid, thiosemicarbazide. Levo- or dextro-ornidazole was administered along with the seizure-inducing agents, and several outcomes were measured, including rate of convulsion, mortality rate, time to convulsion (latency), and time to death. Diazepam was used as a positive anticonvulsant control.
# as §1, with “seconds.” for “seconds. The anticonvulsant effects are observed and recorded (see Tables 2-6).”
# [4] = system: thiosemicarbazide-induced convulsion; test: Anticonvulsant effects on thiosemicarbazide-induced convulsion in mice; type: in vivo; settings: n=10; for Convulsion Latency / Time to Death: Mean ± SD
# Protocol: as §1
# righting reflex = test: Hypnotic effect, loss of righting reflex; type: in vivo, mice
# Protocol: Thirty minutes after drug administration, the number of animals losing righting reflex (LORR) was recorded. […] Sodium pentobarbital was used at […] as the positive control.
# trichomonas vaginalis = test: Pharmacodynamic study of trichomonas vaginalis infection in mice; type: in vivo; parameters: ED90: unit not given beside the values; settings: for ED50: Trichomonas vaginalis; for ED90: dosage of 90% inhibition rate
# Protocol: Male ICR mice were injected intraperitoneally with liquid containing 0.4 ml 3×10^6 trichomonas vaginalis (trichomonas vaginalis from clinical patients). The mice were randomly divided into 19 groups, each with 10. The mice in solvent control group were given blank solutions by tail vein injection. The treatment groups were injected intravenously at 2, 24, 48, and 72 hours after infection with active drugs. The animals were killed five days after infection. Washing offal, fluid was centrifuged, and microscopically examined for life larvae. Autopsy was performed to determine whether there was any visceral and abdominal abscess, microscopic examination was conducted to determine the number of live trichomoniasis in the abscess. […] The abscess formation was inhibited in the treatment groups[…] and the number of live trichomoniasis was reduced. Calculate the dosage of 50% (ED50) and 90% (ED90) inhibition rate.
# amoeba dysentery = test: Pharmacodynamic study of cecum amoeba infection in mice; type: in vivo; settings: male ICR mice infected in the cecum, drug i.v. at 24, 48, 72 hours; for ED50: Mus musculus, iv, dosage of 50% inhibition rate; for ED90: dosage of 90% inhibition rate
# Protocol: Male ICR mice were injected with liquid containing about 200,000 units of amoeba dysentery in the cecum. The mice were randomly divided into 19 groups, each with 10. The mice in solvent control group were given blank solutions by tail vein injection. The treatment groups were injected intravenously at 24, 48, 72 hours after infection with active drugs. The animals were killed six days after infection. Intestinal mucosal biopsies were done, and comparative studies of different stages of the amoeba were studied under microscope. […] Calculated the dosage of 50% (ED50) and 90% (ED90) inhibition rate.
# [5] = Acute toxicity in mice (LD50); settings: mouse, in vivo
# [6] = male ICR mice infected intraperitoneally, drug i.v. at 2, 24, 48, 72 hours
smiles,measurement,setting,value
"Cc1ncc([N+](=O)[O-])n1C[C@@H](O)CCl [D-ornidazole, R-(+)-ornidazole]",Effect on glutamate levels in cerebrum and cerebellum,glutamate,significantly decreased
same,Spontaneous Activities (per 5 min),"[1]; 40 mg/kg, 0.5 h",52 ± 23 per 5 min
same,Spontaneous Activities (per 5 min),"[1]; 40 mg/kg, 1 h",44 ± 19 per 5 min
same,Spontaneous Activities (per 5 min),"[1]; 40 mg/kg, 2 h",35 ± 20 per 5 min
same,Spontaneous Activities (per 5 min),"[1]; 40 mg/kg, 3 h",47 ± 33 per 5 min
same,Spontaneous Activities (per 5 min),"[1]; 40 mg/kg, 4 h",62 ± 31 per 5 min
same,Spontaneous Activities (per 5 min),"[1]; 80 mg/kg, 0.5 h",25 ± 15 per 5 min
same,Spontaneous Activities (per 5 min),"[1]; 80 mg/kg, 1 h",16 ± 21 per 5 min
same,Spontaneous Activities (per 5 min),"[1]; 80 mg/kg, 2 h",17 ± 15 per 5 min
same,Spontaneous Activities (per 5 min),"[1]; 80 mg/kg, 3 h",27 ± 17 per 5 min
same,Spontaneous Activities (per 5 min),"[1]; 80 mg/kg, 4 h",34 ± 17 per 5 min
same,Spontaneous Activities (per 5 min),"[1]; 160 mg/kg, 0.5 h",0 ± 0 per 5 min
same,Spontaneous Activities (per 5 min),"[1]; 160 mg/kg, 1 h",0 ± 0 per 5 min
same,Spontaneous Activities (per 5 min),"[1]; 160 mg/kg, 2 h",0 ± 0 per 5 min
same,Spontaneous Activities (per 5 min),"[1]; 160 mg/kg, 3 h",3 ± 3 per 5 min
same,Spontaneous Activities (per 5 min),"[1]; 160 mg/kg, 4 h",5 ± 5 per 5 min
same,Toxicity Severity,"Beagle dogs; dog, in vivo, iv, 200 mg/kg",Severe
same,Convulsion Latency,[2]; 40 mg/kg i.v.,6.0 ± 0.7 min
same,Mortality Rate,[2]; 40 mg/kg i.v.,10/10
same,Convulsion Latency,[2]; 80 mg/kg i.v.,8.0 ± 2.0 min
same,Mortality Rate,[2]; 80 mg/kg i.v.,7/10
same,Convulsion Latency,[2]; 160 mg/kg i.v.,9.1 ± 2.6 min
same,Mortality Rate,[2]; 160 mg/kg i.v.,1/10**
same,Mortality Rate,"[3]; 40 mg/kg i.v., n=10",10/10
same,Rate of Convulsion,"[3]; 40 mg/kg i.v., n=10",10/10
same,Rate of Convulsion,"[3]; 80 mg/kg i.v., n=10",5/10*
same,Mortality Rate,"[3]; 80 mg/kg i.v., n=10, listed as Dextro-ornidazole, 80 mg/kg",0/10**
same,Mortality Rate,"[3]; 80 mg/kg i.v., n=10, listed as dextro-ornidazole, 80 mg/kg",0/10
same,Mortality Rate,"[3]; 160 mg/kg i.v., n=10",0/10**
same,Rate of Convulsion,"[3]; 160 mg/kg i.v., n=10",0/10**
same,Convulsion Latency,[4]; 40 mg/kg i.v.,94.3 ± 25.1 min
same,Time to Death,[4]; 40 mg/kg i.v.,153.9 ± 43.7 min
same,Convulsion Latency,[4]; 80 mg/kg i.v.,121.8 ± 16.8 min
same,Time to Death,[4]; 80 mg/kg i.v.,213.6 ± 56.5 min
same,Mortality Rate,[4]; 160 mg/kg i.v.,2/10**
same,Rate of Convulsion,[4]; 160 mg/kg i.v.,3/10**
same,Number of animals Loss of Righting Flex 30 min Post-dose,"righting reflex; both, mouse, in vivo, 40 mg/kg, 30 min",0
same,Number of animals Loss of Righting Flex 30 min Post-dose,"righting reflex; both, mouse, in vivo, 80 mg/kg, 30 min",0
same,ED50,"trichomonas vaginalis; male ICR mice infected intraperitoneally, drug i.v. at 2, 24, 48, 72 hours, dosage of 50% inhibition rate, read-out: ED50",14.1 mg/kg
same,ED90,trichomonas vaginalis; [6],54.5
same,ED50,amoeba dysentery,13.3 mg/kg
same,ED90,amoeba dysentery,64.4
"Cc1ncc([N+](=O)[O-])n1CC(O)CCl (racemic) [Racemic ornidazole, 1-(3-Chloro-2-hydroxypropyl)-2-methyl-5-nitroimidazole]",LD50,[5]; intravenous injection,306 mg/kg
same,LD50,"[5]; ip, intraperitoneal injection",1120 mg/kg
same,LD50,[5]; oral gavage,769 mg/kg
same,Toxicity Severity,"Beagle dogs; Beagle dogs, I.V. 200 mg/kg for 2 weeks",Moderate
same,Number of animals Loss of Righting Flex 30 min Post-dose,"righting reflex; mice, 40 mg/kg, 10 animals",0
same,Number of animals Loss of Righting Flex 30 min Post-dose,"righting reflex; mice, 80 mg/kg, 10 animals",0
same,Number of animals Loss of Righting Flex 30 min Post-dose,"righting reflex; mice, 160 mg/kg, 10 animals, listed as Racemate",6*^#
same,Number of animals Loss of Righting Flex 30 min Post-dose,"righting reflex; mice, 160 mg/kg, 10 animals, listed as racemate",6
same,ED50,trichomonas vaginalis; 72 h,11.3 mg/kg
same,ED90,trichomonas vaginalis; [6],43.8
same,ED50,amoeba dysentery,11.4 mg/kg
same,ED90,amoeba dysentery,55.2

# From US20130202698A1 (NANJING SANHOME PHARMACEUTICAL CO., LTD., priority 2005, published 2013)
